For test [1], the system named is Phytophthora infestans. The class given is in vivo. Conditions: tomato, sprayed, evaluation 3 days after inoculation.
Test [2] has as its system Leptosphaeria nodorum. Description: Leptosphaeria nodorum test (wheat)/protective. In kind it is in vivo. The conditions noted are these: sprayed, evaluation 10 days after inoculation. As for the experimental part:
Leptosphaeria nodorum test (wheat)/protective Solvent: 100 parts by weight of dimethylformamide Emulsifier: 0.25 parts by weight of alkylaryl polyglycol ether To produce a suitable preparation of active compound, 1 part by weight of active compound is mixed with the stated amounts of solvent and emulsifier, and the concentrate is diluted with water to the desired concentration. To test for protective activity, young plants are sprayed with the preparation of active compound until dew-moist. After the spray coating has dried on, the plants are sprayed with a conidia suspension of Leptosphaeria nodorum. The plants remain for 48 hours in an incubation cabinet at 20° C. and 100% relative atmospheric humidity. The plants are placed in a greenhouse at a temperature of about 15° C. and a relative atmospheric humidity of about 80%. Evaluation is effected 10 days after the inoculation.

Test [3] concerns Cochliobolus sativus. Description: Cochliobolus sativus test (barley)/protective. In kind it is in vivo. The conditions noted are these: sprayed, evaluation 7 days after inoculation. As for the experimental part: Cochliobolus sativus test (barley)/protective Solvent: 100 parts by weight of dimethylformamide Emulsifier: 0.25 parts by weight of alkylaryl polyglycol ether To produce a suitable preparation of active compound, 1 part by weight of active compound is mixed with the stated amounts of solvent and emulsifier, and the concentrate is diluted with water to the desired concentration. To test for protective activity, young plants are sprayed with the preparation of active compound until dew-moist. After the spray coating has dried on, the plants are sprayed with a conidia suspension of Cochliobolus sativus. The plants remain in an incubation cabinet for 48 hours at 20° C. and 100% relative atmospheric humidity. The plants are placed in a greenhouse at a temperature of about 20° C. and a relative atmospheric humidity of about 80%. Evaluation is carried out 7 days after the inoculation.

Test [4] concerns Alternaria tenuis. Description: MIC on fungi in agar. Conditions: Alternaria alternata, 336 h.
Description: (§1) After storage for 2 weeks at 28° C. and 60 to 70% relative atmospheric humidity, the MIC is determined.
Test [5] has as its system Aspergillus niger. Put plainly: MIC on fungi in agar. Conditions: 336 h.
Description: as §1
Test [6] deals with Aureobasidium pullulans. Put plainly: MIC on fungi in agar. The conditions noted are these: 336 h.
Description: as §1
For test [7], the system named is Chaetomium globosum. Description: MIC on fungi in agar. Conditions: 336 h.
Description: as §1
Test [8] concerns Coniophora puteana. Put plainly: MIC on fungi in agar. The conditions noted are these: 336 h.
Description: as §1
Test [9] concerns Lentinus tigrinus. Description: MIC on fungi in agar. Conditions: 336 h.
Description: as §1
The subject of test [10] is Penicillium glaucum. Put plainly: MIC on fungi in agar. The conditions noted are these: 336 h.
Description: as §1
Test [11] has as its system Polyporus versicolor. Description: MIC on fungi in agar. The conditions noted are these: Trametes versicolor, 336 h.
Description: as §1
The subject of test [12] is Sclerophoma pityophila. Description: MIC on fungi in agar. Conditions: Sydowia polyspora, 336 h.
Description: as §1
The subject of test [13] is Trichoderma viride. Description: MIC on fungi in agar. The conditions noted are these: 336 h.
Description: as §1
The test system of test [14] is Pyricularia oryzae. The class given is in vivo. Conditions: rice, sprayed, disease infestation 4 days after inoculation.
In test [15] the test system is Pyricularia oryzae. The class given is in vivo. Conditions: rice, soil watered 7 days before inoculation, disease infestation 4 days after inoculation.
In test [16] the test system is slime organisms. Put plainly: Action against slime organisms in Allen's nutrient solution (MIC). Conditions: 504 h.
Description: Substances according to the invention, dissolved in a small amount of acetone, are used in concentrations of, in each case, 0.1 to 100 mg/l in Allen's nutrient solution (Arch. Mikrobiol. 17, 34 to 53 (1952)), which contains, in 4 l of sterile water, 0.2 g of ammonium chloride, 4.0 g of sodium nitrate, 1.0 g of dipotassium hydrogen phosphate, 0.2 g of calcium chloride, 2.05 g of magnesium sulphate, 0.02 g of iron chloride and 1% of caprolactam. Shortly beforehand, the nutrient solution is infected with slime organisms (approx. 10^6 organisms/ml) which have been isolated from the spinning water circulations used in the manufacture of polyamide.
The subject of test [17] is Botrytis cinerea. Put plainly: Botrytis test (BEAN)/protective. The class given is in vivo. The conditions noted are these: sprayed, infected spots on leaves evaluated 3 days after inoculation. As for the experimental part:
Botrytis test (BEAN)/protective Solvent: 4.7 parts by weight of acetone Emulsifier: 0.3 parts by weight alkyl aryl polyglycol ether To produce a suitable preparation of active compound, 1 pat by weight of active compound is mixed with the stated amounts of solvent and emulsifier, and the concentrate is diluted with water to the desired concentration. To test for protective activity, young plants are sprayed with the preparation of active compound until dripping wet. After the spray coating has dried on, 2 small pieces of agar covered with Botrytis cinerea are placed on each leaf. The inoculated plants are placed in a darkened humidity chamber at 20° C. 3 days after the inoculation, the size of the infected spots on the leaves is evaluated.

The test system of test [18] is Drechslera graminea. Put plainly: Drechslera graminea test (barley)/seed treatment. In kind it is in vivo, Drechslera graminea (syn. Helminthosporium gramineum). The conditions noted are these: seed dry dressing, about 3 weeks after sowing. Here is the method: Drechslera […] (barley)/seed treatment (syn. Helminthosporium gramineum) The active compounds are used as dry dressings. These are prepared by extending the paticular active compound with a ground mineral to give a finely pulverulent mixture, which ensures uniform distribution on the seed surface. To apply the dressing, the infected seed is shaken with the dressing in a closed glass flask for 3 minutes. The seed is embedded in sieved, moist standard soil and is exposed to a temperature of 4° C. in closed Petri dishes in a refrigerator for 10 days. Germination of the barley, and possibly also of the fungus spores, is thereby initiated. 2 batches of 50 grains of the pregerminated barley are subsequently sown 3 cm deep in standard soil and are cultivated in a greenhouse at a temperature of about 18° C., in seedboxes which are exposed to light for 15 hours daily. About 3 weeks after sowing, the plants are evaluated for symptons of stripe disease.

In brackets after ≈: the same amount, converted by molar mass.

Broadly, the MIC is the lowest concentration found to suppress growth. Low readings indicate a more susceptible organism, high ones a less susceptible organism.

For the compound `O=c1c(-c2ccc(C(F)(F)F)cc2)c[nH]n1-c1ncccn1` [Example 100], the protective activity result in [1], in test [2] and in test [3] was “clearly superior activity compared with the prior art” each time. Moreover, the MIC in test [4] came out at 50 µg/mL (≈ 163 µM); in test [5], 500 µg/mL (≈ 1630 µM); in test [6], 50 µg/mL (≈ 163 µM); in [7] it was 1 µg/mL (≈ 3.27 µM); in [8] it was 5 µg/mL (≈ 16.3 µM); in test [9], 15 µg/mL (≈ 49 µM). The MIC came to 10 µg/mL (≈ 32.7 µM) in [10], 5 µg/mL (≈ 16.3 µM) in test [11], 20 µg/mL (≈ 65.3 µM) in test [12] and 500 µg/mL (≈ 1630 µM) in test [13].

For `O=c1c(-c2cccc3ccccc23)c[nH]n1-c1ncccn1` [Example 105], the protective activity entry in test [1] and in [14] was “clearly superior activity compared with the prior art” each time. In addition, in test [15], the systemic activity result is recorded as “clearly superior activity compared with the prior art”.

In the case of `O=c1c(-c2ccc(Cl)c(Cl)c2)c[nH]n1-c1ccccn1` [Example 13], the protective activity entry in test [1] was “clearly superior activity compared with the prior art”.

On to `O=c1c(-c2ccc(F)cc2)c[nH]n1-c1ncccn1` [Example 83], for which the MIC in test [4] worked out at 50 µg/mL (≈ 195 µM); in [5], 15 µg/mL (≈ 58.5 µM); in test [6], 50 µg/mL (≈ 195 µM); in test [7] it was 3.5 µg/mL (≈ 13.7 µM); in [8] it was 5 µg/mL (≈ 19.5 µM); in [9], 50 µg/mL (≈ 195 µM). The MIC worked out at 20 µg/mL (≈ 78.1 µM) in [10]; 35 µg/mL (≈ 137 µM) in test [11]; 5 µg/mL (≈ 19.5 µM) in [12]; 75 µg/mL (≈ 293 µM) in test [13]; 35 µg/mL (≈ 137 µM) in test [16].

As for `Cc1cccc(-c2c[nH]n(-c3ncccn3)c2=O)c1` [Example 97], the systemic activity result in test [15] is given as “clearly superior activity compared with the prior art”. Further, the MIC in test [4] amounted to 50 µg/mL (≈ 198 µM); in test [5], 10 µg/mL (≈ 39.6 µM); in test [6] it was 50 µg/mL (≈ 198 µM); in test [7], 1 µg/mL (≈ 3.96 µM); in test [8], 2 µg/mL (≈ 7.93 µM); in test [9] it was 10 µg/mL (≈ 39.6 µM). Also, the MIC is 10 µg/mL (≈ 39.6 µM) in [10], 5 µg/mL (≈ 19.8 µM) in [11], 20 µg/mL (≈ 79.3 µM) in [12] and 75 µg/mL (≈ 297 µM) in [13].

`O=c1c(-c2cccc(OC(F)(F)F)c2)c[nH]n1-c1ncccn1` [Example 92]: the protective activity result in test [1] and in test [3] was “clearly superior activity compared with the prior art” each time.

Consider `Cc1ccccc1-c1c[nH]n(-c2ccccn2)c1=O` [Example 21], for which the protective activity entry in test [17] and in [3] was “clearly superior activity compared with the prior art” throughout. Also, in test [15], the systemic activity entry is given as “clearly superior activity compared with the prior art”. In addition, the “activity, symptoms of stripe disease” value in test [18] was “clearly superior activity compared with the prior art”. Besides, the MIC in test [4] was found to be 10 µg/mL (≈ 39.8 µM); in [5], 7.5 µg/mL (≈ 29.8 µM); in test [6], 35 µg/mL (≈ 139 µM); in [7], 0.75 µg/mL (≈ 2.98 µM); in test [8], 5 µg/mL (≈ 19.9 µM); in [9], 50 µg/mL (≈ 199 µM). The MIC in test [10] was found to be 7.5 µg/mL (≈ 29.8 µM); in test [11] it was 7.5 µg/mL (≈ 29.8 µM); in test [12] it was 35 µg/mL (≈ 139 µM); in test [13] it was 50 µg/mL (≈ 199 µM).

Take `O=c1c(-c2cc(C(F)(F)F)ccc2Cl)c[nH]n1-c1ncccn1` [Example 102]: the protective activity entry in test [1], in test [17] and in test [14] was “clearly superior activity compared with the prior art” each time. In test [15], the systemic activity result is given as “clearly superior activity compared with the prior art”.

For the compound `Cc1ccc(-c2c[nH]n(-c3ccccn3)c2=O)cc1` [Example 23], the MIC in test [4] was 75 µg/mL (≈ 298 µM); in [5], 7.5 µg/mL (≈ 29.8 µM); in test [6] it was 50 µg/mL (≈ 199 µM); in [7] it was 0.5 µg/mL (≈ 1.99 µM); in test [8], 35 µg/mL (≈ 139 µM); in test [9] it was 75 µg/mL (≈ 298 µM). For the same compound, the MIC came out at 5 µg/mL (≈ 19.9 µM) in test [10]; 3.5 µg/mL (≈ 13.9 µM) in [11]; 20 µg/mL (≈ 79.6 µM) in test [12]; 1000 µg/mL (≈ 3980 µM) in [13]; 7.5 µg/mL (≈ 29.8 µM) in test [16].

For `O=c1c(-c2ccc(OC(F)(F)F)cc2)c[nH]n1-c1ncccn1` [Example 93], the protective activity result in [1] is listed as “clearly superior activity compared with the prior art”.

As for `O=c1c(-c2cc(C(F)(F)F)cc(C(F)(F)F)c2)c[nH]n1-c1ccccn1` [Example 28], the protective activity entry in test [14], in test [2] and in [3] was “clearly superior activity compared with the prior art” throughout.

Turning to `O=c1c(-c2ccccc2)c[nH]n1-c1ccccn1` [Example 4, 1-pyrid-2-yl-4-phenyl-pyrazolin-5-one], the MIC in [4] came to 50 µg/mL (≈ 211 µM); in [5] it was 7.5 µg/mL (≈ 31.6 µM); in test [6], 100 µg/mL (≈ 421 µM); in test [7] it was 1.5 µg/mL (≈ 6.32 µM); in test [8], 5 µg/mL (≈ 21.1 µM); in test [9] it was 75 µg/mL (≈ 316 µM). Also, the MIC in test [10] was found to be 10 µg/mL (≈ 42.1 µM); in [11], 35 µg/mL (≈ 148 µM); in test [12], 10 µg/mL (≈ 42.1 µM); in test [13], 200 µg/mL (≈ 843 µM); in test [16], 15 µg/mL (≈ 63.2 µM).

Take `O=c1c(-c2ccc(OC(F)(F)F)cc2)c[nH]n1-c1ccccn1` [Example 18]: the systemic activity result in [15] was “clearly superior activity compared with the prior art”. The protective activity entry in test [2] and in test [3] was “clearly superior activity compared with the prior art” throughout.

Take `O=c1c(-c2ccc(SC(F)(F)F)cc2)c[nH]n1-c1ncccn1` [Example 94]: the protective activity entry in test [17] was “clearly superior activity compared with the prior art”. The systemic activity entry in test [15] is “clearly superior activity compared with the prior art”.

Values taken from patent US4663327A, “1-heteroaryl-4-aryl-pyrazolin-5-ones” (priority 1984, dated 1987).
